# Measurements taken from US10457702B2, “Dicaffeoyl spermidine cyclized derivatives and use thereof” (Jinan University, priority 2016, dated 2019).
# Assays:
# [1] = system: Senile dementia fruit fly (Aβ42, P35*H29.3); assay: Learning and memory (olfactory short-term memory, T-Maze performance index) of Senile dementia fruit fly; format: in vivo; conditions: for improvement of learning and memory function of Senile dementia fruit fly (in words): 100 μM, compared with untreated disease flies and positive control drug memantine; for PI (100 μM) learning and memory performance index: Senile dementia disease flies (P35*H29.3), drug administered at 100 μM, n = 6
# Source text: (1) Cultivation of Senile Dementia Fruit Fly W^1118 (isoCJI), as a background fruit fly of control group in the experiment, was abbreviated as “2U”. The fruit flies that successfully introduced with the pathogenic Aβ42 protein were (UAS-Aβ42; abbreviated as “H29.3”). This strain of fruit flies was hybridized with the fruit fly expressing the Gal4 promoter in whole brain, and the fruit fly strain carrying elav-GAL4^[…] (P35) and Aβ42 was obtained. (2) Administration of Senile Dementia Fruit Fly Three groups of drug-free control of healthy fruit fly, drug-free control of disease fruit fly, and dose disease fruit fly were set in the experiment. All parents of tested fruit flies were housed and propagated at a constant temperature of 24° C. and a humidity of 42% RH (Relative humidity). On the first day after the emergence of the fruit flies, the fruit flies of control group and disease group, as well as the fruit flies to be administered were anesthetized with carbon dioxide, and the fruit flies of the correct characters were selected into the glass tube containing food. During the dosing period, all test fruit flies were kept in an incubator with a constant temperature of 28° C. and a constant humidity of 42% to ensure the drug taking efficiency of the fruit flies. Each day the fruit flies were administered for 4 hours, and the drug was administered from the second day after the fruit flies were selected until the 8th day. The drugs administered were prepared on the second day after the fruit fly selection, and were administered to the fruit flies on the day of preparation. The drugs were dissolved by 100% DMSO to a concentration of 10 mM. When preparing the working solution, the 10 mM stock solution was diluted to 100 μM with 4% sucrose. In addition, the fruit flies of control group were fed sucrose water containing 1% DMSO. For each Performance Index, two tubes of fruit fly groups are required, each tube containing about 100 fruit flies. Experiments were conducted in a light proof behavior room with constant temperature of 25 ° C., constant humidity of 70%. The method can be found in references ^[1-3]. 1) During the training stage, about 100 flies were loaded into a training tube provided with a copper mesh cross electrode. Two kinds of odors of octanol (OCT) and methylcyclohexanol (MCH) were successively introduced for each 60 s with an intervals for 45 s of fresh air. 60 V pulsed electrical shock stimulation (US, pulse duration 1.5 s, interval 3.5 s) was applied to the fruit flies while introducing the 1st odor. No electrical shock was applied when the second odor (CS-) was introduced. Thereby one training cycle was completed. 2) In the transient memory (learning) ability test, the fruit flies that completed one training cycle were immediately transferred to the selection point of T-Maze, while CS+ and CS- were introduced from the opposite two directions. After two minutes of selection, the fruit flies on both sides were collected separately and counted after anesthesia or sacrifice. […] When performing the activity test, the short-term memory deficit tests for the olfactory sensation of the non-administered healthy flies with the same genetic background (2U*H29.3), non-administered Senile dementia disease flies (P35*[…].3), and test drug administered Senile dementia disease flies were also conducted, and their total learning and memory performance indexes (PIs) was calculated respectively. […]
# [2] = Oxygen radical absorbance capacity (ORAC) antioxidant experiment; conditions: for ORAC value (μmol TE/μmol): relative to Trolox standard, AAPH, fluorescein
# Method: The antioxidant activity of the compounds was evaluated by using the oxygen radical absorbance capacity (ORAC) experiment. The detailed experimental procedure is as follows. 0.248 g of AAPH (2,2′-azobisisobutylamidine dihydrochloride) was added to a 50 mL phosphate buffer system to formulate a 18.3 mM AAPH stock solution. 20 μL of phosphate buffer, 20 μL solution of sample to be tested or standard substance Trolox (concentration of 6.25 μM) and 20 μL of fluorescent substance of disodium fluorescein (FL, concentration of 630 nM) were added into the wells of a 96-well plate in order. Then, 140 μL of AAPH (concentration of 18.3 mM) was quickly added to the wells of a 96-well plate, which was immediately placed in a GENios […] microplate reader manufactured by Tecan, Switzerland, the excitation wavelength was set as 485 nm and the emission wavelength was set as 527 nm. The fluorescence intensity was measured every 2 minutes and recorded for a total of 100 min.
# The antioxidant capacity of the active substance is calculated as follows: Relative ORAC value=(AUCsample−AUCblank)/(AUCtrolox−AUCblank). Wherein, AUCsample refers to the integral area under the fluorescence decay curve of the test sample, AUCtrolox refers to the integral area under the fluorescence decay curve of the standard substance Trolox, and AUCblank refers to the integral area under the fluorescence decay curve when the test sample or the standard substance Trolox is not added.
SMILES,improvement of learning and memory function of Senile dementia fruit fly (in words) [1],PI (100 μM) learning and memory performance index [1],"antioxidant activity (in words) ([2]; ORAC, compared with positive control EGCG)",ORAC value (μmol TE/μmol) [2] [μmol TE/μmol]
O=C1/C=C/c2ccc(O)c(c2)Oc2cc(O[C@@H]3O[C@H](CO)[C@@H](O)[C@H](O)[C@H]3O)c(O)cc2CCC(=O)NCCCCNCCCN1 [Formula II],significantly improve the learning and memory function,37.1 ± 2.2**,comparable to that of the positive control drug,1.48 ± 0.01
O=C1/C=C/c2ccc(O)c(c2)Oc2cc(O[C@@H]3O[C@H](CO)[C@@H](O)[C@H](O[C@@H]4O[C@H](CO)[C@@H](O)[C@H](O)[C@H]4O)[C@H]3O)c(O)cc2CCC(=O)NCCCCNCCCN1 [Formula III],superior to the positive control drug,45.9 ± 1.9***,,0.96 ± 0.03
"O=C(O[C@@H]1Cc2c(O)cc(O)cc2O[C@@H]1c1cc(O)c(O)c(O)c1)c1cc(O)c(O)c(O)c1 [EGCG, epigallocatechin gallate, reference compound]",,,,1.48 ± 0.02
"CC12CC3CC(C)(C1)CC(N)(C3)C2 [Memantine, memantine, reference compound]",,44.2 ± 2.1***,,
